Experiments:
[1] = molecular target: T1, rat adrenergic α1A receptor (Rattus norvegicus, UniProt P43140); assay: Adrenergic α1A radioligand binding ([3H]Prazosin); details: read-out: Adrenergic (0.1 μM) a1A, percent inhibition of specific binding; compound at 0.1 μM; 0.25 nM [3H]Prazosin
T1 construct: rat adrenergic α1A receptor obtained from Wistar Rat submaxillary glands; from tissue; host or cells: Wistar rat submaxillary glands
T1 sequence (P43140 1-466): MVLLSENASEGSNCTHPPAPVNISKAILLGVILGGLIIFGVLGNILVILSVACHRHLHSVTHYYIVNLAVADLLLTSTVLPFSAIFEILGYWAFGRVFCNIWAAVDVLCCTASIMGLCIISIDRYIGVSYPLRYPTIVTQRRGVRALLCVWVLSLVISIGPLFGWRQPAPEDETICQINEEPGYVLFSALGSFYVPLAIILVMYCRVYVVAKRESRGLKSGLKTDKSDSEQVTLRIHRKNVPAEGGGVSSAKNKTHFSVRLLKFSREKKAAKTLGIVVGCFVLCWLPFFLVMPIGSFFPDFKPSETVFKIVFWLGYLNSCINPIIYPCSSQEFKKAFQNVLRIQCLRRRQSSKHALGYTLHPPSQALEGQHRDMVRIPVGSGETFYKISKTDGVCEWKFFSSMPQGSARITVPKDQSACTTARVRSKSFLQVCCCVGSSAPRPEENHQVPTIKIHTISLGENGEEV
Procedure, shortened: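 Wistar rat submaxillary gland receptor in 50 mM Tris-HCl pH 7.4 with 0.5 mM EDTA, incubated with compound and 0.25 nM [3H]Prazosin for 60 min at 25 °C.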

[2] = molecular target: T2, human recombinant dopamine D2L receptor (Homo sapiens, UniProt P14416); assay: Dopamine D2L radioligand binding ([3H]Spiperone); details: read-out: Dopamine D2L (1 μM), percent inhibition of specific binding; compound at 1 μM; 0.16 nM [3H]Spiperone
T2 construct: expressed in transfected cells; host or cells: CHO
Method: Non-specific binding was estimated in the presence of 10 μM Haloperidol. Receptor proteins were filtered and washed, the filters were then counted to determine [^3H]Spiperone specifically bound.

[3] = molecular target: T3, human recombinant serotonin (5-Hydroxytryptamine) 5-HT2A receptor (Homo sapiens, UniProt P28223); assay: Serotonin 5-HT2A radioligand binding ([3H]Ketanserin); details: compound at 0.1 μM; read-out: Inhibition of ligand binding, Serotonin 5-HT2A (percent inhibition of specific binding)
T3 construct: expressed in transfected cells; host or cells: CHO-K1
Method: Compounds of the invention were incubated with 0.5 nM [^3H]Ketanserin for 60 min at 25° C. Non-specific binding was estimated in the presence of 1 μM Mianserin. Receptor proteins were filtered and washed, the filters were then counted to determine [^3H]Ketanserin specifically bound.

[4] = molecular target: T4, human recombinant serotonin (5-Hydroxytryptamine) 5-HT2C receptor (Homo sapiens, UniProt P28335); assay: Serotonin 5-HT2C radioligand binding ([3H]Mesulergine); details: compound at 0.1 μM; read-out: Inhibition of ligand binding, Serotonin 5-HT2C (percent inhibition of specific binding)
T4 construct: expressed in transfected cells; host or cells: CHO-K1
T4 sequence (P28335 33-458): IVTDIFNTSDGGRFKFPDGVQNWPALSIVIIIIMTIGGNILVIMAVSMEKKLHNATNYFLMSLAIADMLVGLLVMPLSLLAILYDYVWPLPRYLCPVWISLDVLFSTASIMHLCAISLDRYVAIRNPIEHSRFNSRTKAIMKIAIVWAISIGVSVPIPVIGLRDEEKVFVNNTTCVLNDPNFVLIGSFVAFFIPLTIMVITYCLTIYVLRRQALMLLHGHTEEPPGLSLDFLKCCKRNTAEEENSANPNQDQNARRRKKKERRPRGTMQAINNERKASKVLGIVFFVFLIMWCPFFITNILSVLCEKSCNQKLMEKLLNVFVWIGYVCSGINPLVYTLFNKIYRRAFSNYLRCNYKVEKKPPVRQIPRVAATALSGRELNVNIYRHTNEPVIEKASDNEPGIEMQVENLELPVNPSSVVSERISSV
Method: Compounds of the invention were incubated with 1 nM [^3H]Mesulergine for 60 min at 25° C. Non-specific binding was estimated in the presence of 1 μM Mianserin. Receptor proteins were filtered and washed, the filters were then counted to determine [^3H]Mesulergine specifically bound.

[5] = molecular target: T5, human recombinant serotonin (5-Hydroxytryptamine) 5-HT5A receptor (Homo sapiens, UniProt P47898); assay: Serotonin 5-HT5A radioligand binding ([3H]LSD); details: compound at 0.1 μM; read-out: Inhibition of ligand binding, Serotonin 5-HT5A (percent inhibition of specific binding)
T5 construct: expressed in transfected cells; host or cells: CHO-K1
Method: Compounds of the invention were incubated with 1.7 nM [^3H]Lysergic acid diethylamide (LSD) for 60 min at 37° C. […] Receptor proteins were filtered and washed, the filters were counted to determine [^3H]LSD specifically bound.

[6] = molecular target: T6, human recombinant serotonin (5-Hydroxytryptamine) 5-HT6 receptor (Homo sapiens, UniProt P50406); assay: Serotonin 5-HT6 radioligand binding ([3H]LSD); details: compound at 0.1 μM; read-out: Inhibition of ligand binding, Serotonin 5-HT6 (percent inhibition of specific binding)
T6 construct: expressed in transfected cells; host or cells: HeLa
Description: Receptor proteins were filtered and washed, the filters were then counted to determine [3H]LSD specifically bound.

[7] = molecular target: T7, human recombinant serotonin (5-Hydroxytryptamine) 5-HT7 receptor (Homo sapiens, UniProt P34969); assay: Serotonin 5-HT7 radioligand binding ([3H]LSD); details: compound at 0.1 μM; read-out: Inhibition of ligand binding, Serotonin 5-HT7 (percent inhibition of specific binding)
T7 construct: expressed in transfected cells; host or cells: CHO
Method: Lysergic acid diethylamide (LSD) for 120 min. at 25° C. […] Receptor proteins were filtered and washed, the filters were then counted to determine [^3H]LSD specifically bound.

T5 sequence (P47898 whole entry): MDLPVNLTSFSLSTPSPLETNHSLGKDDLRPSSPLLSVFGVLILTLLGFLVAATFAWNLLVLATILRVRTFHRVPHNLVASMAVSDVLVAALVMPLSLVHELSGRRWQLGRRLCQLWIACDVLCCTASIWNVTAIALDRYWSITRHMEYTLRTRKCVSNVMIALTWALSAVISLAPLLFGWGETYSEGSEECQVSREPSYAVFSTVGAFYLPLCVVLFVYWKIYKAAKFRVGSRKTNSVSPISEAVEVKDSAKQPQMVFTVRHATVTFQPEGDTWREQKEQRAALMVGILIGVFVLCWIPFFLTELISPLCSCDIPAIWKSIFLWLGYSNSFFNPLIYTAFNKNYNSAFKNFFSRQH
T2 sequence (P14416 whole entry): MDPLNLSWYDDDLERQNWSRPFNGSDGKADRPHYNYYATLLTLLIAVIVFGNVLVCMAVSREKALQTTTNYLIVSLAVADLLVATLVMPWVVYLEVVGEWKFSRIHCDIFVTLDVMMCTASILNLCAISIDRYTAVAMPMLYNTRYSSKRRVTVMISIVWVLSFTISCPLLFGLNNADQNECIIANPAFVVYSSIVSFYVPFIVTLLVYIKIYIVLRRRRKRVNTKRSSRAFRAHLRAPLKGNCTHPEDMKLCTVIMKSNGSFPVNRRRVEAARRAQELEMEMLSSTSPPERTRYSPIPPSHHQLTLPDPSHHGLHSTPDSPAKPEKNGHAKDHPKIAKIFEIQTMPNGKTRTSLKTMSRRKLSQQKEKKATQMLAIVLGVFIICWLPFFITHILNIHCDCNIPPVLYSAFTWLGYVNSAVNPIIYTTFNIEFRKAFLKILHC
T3 sequence (P28223 whole entry): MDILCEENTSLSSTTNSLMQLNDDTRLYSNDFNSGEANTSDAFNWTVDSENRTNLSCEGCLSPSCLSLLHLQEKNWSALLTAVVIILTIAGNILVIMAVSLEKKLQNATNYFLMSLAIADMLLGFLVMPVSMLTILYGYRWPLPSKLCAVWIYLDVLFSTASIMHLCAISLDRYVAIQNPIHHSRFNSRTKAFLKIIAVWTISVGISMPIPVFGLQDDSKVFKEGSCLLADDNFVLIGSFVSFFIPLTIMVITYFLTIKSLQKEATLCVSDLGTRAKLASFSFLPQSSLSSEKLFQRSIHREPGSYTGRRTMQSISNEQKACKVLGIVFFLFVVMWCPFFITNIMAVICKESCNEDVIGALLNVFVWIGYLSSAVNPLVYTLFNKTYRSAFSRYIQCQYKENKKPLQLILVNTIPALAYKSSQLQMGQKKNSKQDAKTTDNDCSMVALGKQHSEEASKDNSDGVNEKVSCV
T7 sequence (P34969 whole entry): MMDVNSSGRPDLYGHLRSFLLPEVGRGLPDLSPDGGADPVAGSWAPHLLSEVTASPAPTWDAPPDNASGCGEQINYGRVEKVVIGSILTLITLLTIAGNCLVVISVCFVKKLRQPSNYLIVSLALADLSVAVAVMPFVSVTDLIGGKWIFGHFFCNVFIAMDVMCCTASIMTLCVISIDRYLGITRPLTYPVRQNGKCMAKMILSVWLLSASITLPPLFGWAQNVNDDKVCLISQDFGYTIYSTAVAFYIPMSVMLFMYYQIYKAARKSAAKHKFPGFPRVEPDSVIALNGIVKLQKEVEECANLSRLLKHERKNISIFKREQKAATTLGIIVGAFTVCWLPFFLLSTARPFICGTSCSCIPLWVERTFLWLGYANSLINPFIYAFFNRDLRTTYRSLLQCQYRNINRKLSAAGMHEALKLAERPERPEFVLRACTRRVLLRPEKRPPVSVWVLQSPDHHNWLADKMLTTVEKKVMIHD
T6 sequence (P50406 whole entry): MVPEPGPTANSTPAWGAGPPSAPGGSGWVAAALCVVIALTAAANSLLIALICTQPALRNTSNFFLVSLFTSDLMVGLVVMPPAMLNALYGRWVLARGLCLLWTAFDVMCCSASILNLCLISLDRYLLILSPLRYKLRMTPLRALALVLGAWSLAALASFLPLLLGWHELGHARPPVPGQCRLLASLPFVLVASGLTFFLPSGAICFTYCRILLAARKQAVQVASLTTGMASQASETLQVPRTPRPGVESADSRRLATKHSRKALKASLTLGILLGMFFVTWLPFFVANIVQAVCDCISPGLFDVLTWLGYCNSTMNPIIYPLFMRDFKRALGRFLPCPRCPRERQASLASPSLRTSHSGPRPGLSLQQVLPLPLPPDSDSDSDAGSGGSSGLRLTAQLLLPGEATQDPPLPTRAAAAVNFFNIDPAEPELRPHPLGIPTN

| SMILES | inhibition at 0.1 µM [1] | inhibition at 1 µM [2] | inhibition at 0.1 µM [3] | inhibition at 0.1 µM [4] | inhibition at 0.1 µM [5] | inhibition at 0.1 µM [6] | inhibition at 0.1 µM [7] |
| --- | --- | --- | --- | --- | --- | --- | --- |
| Cc1ccc2c(c1)c1c(n2-c2ccccc2-c2cc3ccccc3s2)CCN(C)C1 [Compound No. 103, 5-(2-(benzo[b]thiophen-2-yl)phenyl)-2,8-dimethyl-2,3,4,5-tetrahydro-1H-pyrido[4,3-b]indole] | 44% | 10% | 24% | 43% | 42% | 20% | 39% |
| Cc1ccc2c(c1)c1c(n2-c2ccccc2-c2cnn(C)c2)CCN(C)C1 [Compound No. 86, 2,8-dimethyl-5-(2-(1-methyl-1H-pyrazol-4-yl)phenyl)-2,3,4,5-tetrahydro-1H-pyrido[4,3-b]indole] | 17% | 6% | 94% | 71% | 37% | 11% | 53% |
| Cc1ccc2c(c1)c1c(n2-c2ccccc2-c2cccc3[nH]ncc23)CCN(C)C1 [Compound No. 105, 5-(2-(1H-indazol-4-yl)phenyl)-2,8-dimethyl-2,3,4,5-tetrahydro-1H-pyrido[4,3-b]indole] | 55% | 3% | 94% | 82% | 56% | 40% | 54% |
| Cc1ccc2c(c1)c1c(n2-c2ccccc2-c2cn[nH]c2)CCN(C)C1 [Compound No. 104, 5-(2-(1H-pyrazol-4-yl)phenyl)-2,8-dimethyl-2,3,4,5-tetrahydro-1H-pyrido[4,3-b]indole] | 4% | -1% | 57% | 77% | 20% | 10% | 27% |
| Cc1ccc2c(c1)c1c(n2-c2cnc3ccccc3c2)CCN(C)C1 [Compound No. 88, 2,8-dimethyl-5-quinolin-3-yl-2,3,4,5-tetrahydro-1H-pyrido[4,3-b]indole] | 20% | 7% | 93% | 90% | 22% | 4% | 13% |
| Cc1ccc2c(c1)c1c(n2-c2ccccc2-c2sccc2C)CCN(C)C1 [Compound No. 102, 2,8-dimethyl-5-(2-(3-methylthiophen-2-yl)phenyl)-2,3,4,5-tetrahydro-1H-pyrido[4,3-b]indole] | 28% | 48% | 92% | 90% | 10% | 42% | 34% |
| Cc1ccc2c(c1)c1c(n2-c2ccccc2-c2cncc3ccccc23)CCN(C)C1 [Compound No. 87, 5-(2-(isoquinolin-4-yl)phenyl)-2,8-dimethyl-2,3,4,5-tetrahydro-1H-pyrido[4,3-b]indole] | 8% | 10% | 70% | 66% | 24% | 13% | 14% |
| Cc1ccc2c(c1)c1c(n2-c2ccccc2-c2cccn2C)CCN(C)C1 [Compound No. 100, 2,8-dimethyl-5-(2-(1-methyl-1H-pyrrol-2-yl)phenyl)-2,3,4,5-tetrahydro-1H-pyrido[4,3-b]indole] | 46% | 11% | 74% | 72% | 11% | 26% | 48% |

Reference: patent US9187471B2, “Pyrido [4,3-b] indole and pyrido [3,4-b] indole derivatives and methods of use” (Medivation Technologies, Inc., priority 2010, dated 2015)
